Assays:
[1] = system: PGD2 production from IgE-stimulated RBL-2H3 cells; assay: Suppressing action on PGD2 production from IgE-stimulated RBL-2H3 cells; format: cell-based; details: Rattus norvegicus, 10 min, IgE/DNP-BSA stimulated RBL-2H3 cells, read-out: PGD2 production suppression ratio
Text: (§1) 2. Suppressing Action on PGD2 and LTB4 Production from IgE-Stimulated RBL-2H3 Cells
(§2) Suppressing action on PGD2 and LTB4 production caused by IgE as an allergic stimulant was investigated by the following method. Cells of RBL-2H3, which is a rat mastocytoma cell line (purchased from ATCC), were suspended in DEMEM medium (GIBCO) containing 10% fetal bovine serum (BioFluid), inoculated to each well of 48-well culture plate at a density of 2×10^4 cells/well and cultured overnight. Then, IgE antiserum directed to dinitrophenylated BSA (henceforth DNP-BSA) was further added to each well, and the cells were cultured for 30 minutes. Then, the medium was changed to DEMEM medium containing 0.5% fetal bovine serum, a test compound was added with each well, and DNP-BSA was further added at a final concentration of 100 ng/ml as a stimulant. Ten minutes after the stimulant was added, the culture supernatant was collected, and the PGD2 concentration and LTB4 concentration in the culture supernatant were measured by using EIA kit (CAYMAN). By using a well which was not added with the stimulant as a negative control and a well which was added only with the stimulant as a positive control, suppressing ratios on mediator production were calculated from the production amounts of the mediators in the well added with the test compound using the following equation. PGD2 or LTB4 production suppression ratio=[1−(C−B)/(A−B)]×100 • A: PGD2 or LTB4 production amount of positive control • B: PGD2 or LTB4 production amount of negative control • C: PGD2 or LTB4 production amount in well added with test compound
(§3) Further, as control compounds for comparison, reference compound (1), 3-(2-cyclohexylmethyloxy-1,1′-biphenyl-5-yl)propionic acid described in WO99/19291, reference compounds (2) and (3), [2-(5,6,7,8-tetrahydro-5,5,8,8-tetramethyl-2-naphthalenyl)methyloxy-1,1′-biphenyl-5-yl]carboxylic acid [reference compound (2)] and 3-[3′-carboxy-2-(5,6,7,8-tetrahydro-5,5,8,8-tetramethyl-2naphthalenyl)methyloxy-1,1′-biphenyl-6-yl]propionic acid [reference compound (3)] described in U.S. Pat. No. 5,391,817 and Japanese Patent Unexamined Publication (Kokai) No. 7-22399, respectively, were used, and activities thereof were similarly measured.

[2] = system: PGE2 production from IL-1β-stimulated MG-63 cells; assay: Suppressing action on PGE2 production from IL-1β-stimulated MG-63 cells; format: cell-based; details: Homo sapiens, IL-1β 1 ng/ml, 18 hours, read-out: PGE2 production suppression ratio
In short: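 PGE2 in 18 h supernatants was quantified by EIA and expressed as % suppression relative to IL-1β-only and unstimulated controls. Cells were the MG-63 osteosarcoma line, plated at 2×10^4/well, given compound in 0.5% FBS EMEM, then 1 ng/ml IL-1β final.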

[3] = system: zymosan-stimulated footpad edema; assay: Mouse zymosan-stimulated footpad edema reaction; format: in vivo; details: ICR female mice, oral 0.1 to 500 mg/kg, compared with positive control group
Description: 3. Suppressing Effect on Mouse Zymosan-stimulated Footpad Edema Reaction A suppressing effect on footpad edema caused by zymosan as an inflammatory stimulant was studied by the following method. Groups of ICR female mice (6- to 7-week old) each consisting of eight mice were used for the test. A test compound was suspended or dissolved in purified water containing 0.5% methylcellulose and orally administered to the test animals at 0.1 to 500 mg/0.2 ml/kg. To the control group, purified water containing 0.5% methylcellulose was administered in a similar manner, which was not added with a test compound. One hour after the administration of the test compound, 0.02 ml of a suspension of zymosan suspended in physiological saline (Otsuka Pharmaceutical) at 1 mg/ml was subcutaneously administered to right hind leg footpad of each mouse. One and two hours after the administration of the zymosan suspension, volume of the right hind leg footpad was measured by using an apparatus for measuring a volume of mouse hind leg footpad edema (Unicom). A difference of the volume of footpad measured above and the footpad volume before the administration of the test compound measured beforehand was regarded as a volume of the edema. For the volume of the edema at 1 hour or 2 hours after the zymosan administration, a graph was prepared by indicating time in abscissa and the edema volume in ordinate, and an edema volume AUC (area under the curve) was obtained up to 2 hours by calculation using the following equation. Edema volume AUC (1·hour)=1/2×1×A+1×(A+B)/2 • A: Edema volume 1 hour after zymosan administration • B: Edema volume 2 hour after zymosan administration A suppression ratio on edema of test compound was obtained by calculation using the following equation. Edema suppression ratio (%)=[1−B/A]×100 • A: Edema volume AUC of positive control • B: Edema volume AUC of test compound administered group (2) Measurement Results

[4] = system: LTB4 production from IgE-stimulated RBL-2H3 cells; assay: Suppressing action on LTB4 production from IgE-stimulated RBL-2H3 cells; format: cell-based; details: Rattus norvegicus, 10 min, IgE/DNP-BSA stimulated RBL-2H3 cells, read-out: LTB4 production suppression ratio
Text: as §1, §2, §3

Structure (SMILES)	inhibition at 0.4 µM [1] [%]	inhibition at 0.4 µM [2] [%]	suppression of footpad edema caused by zymosan [3]	inhibition at 0.4 µM [4] [%]
O=C(O)CCc1ccc(OCC2CCCC2)c(-c2ccc3cc(O)ccc3c2)c1 [Compound 004, 3-[4-cyclopentylmethyloxy-3-(6-hydroxynaphthalen-2-yl)phenyl]propionic acid]	≥ 50	≥ 50	suppressed footpad edema	≥ 50
CNc1ccc2cc(-c3cc(CCC(=O)O)ccc3OCC3CCCC3)ccc2c1 [Compound 016, 3-{4-cyclopentylmethyloxy-3-[6-(N-methylamino)naphthalen-2-yl]phenyl}propionic acid]	≥ 50	≥ 50		≥ 50
O=C(O)CCc1ccc(OCc2cccc(F)c2)c(-c2ccc3ccccc3c2)c1 [Compound 035, 3-[4-(3-fluorophenylmethyloxy)-3-(naphthalen-2-yl)phenyl]propionic acid]	≥ 50			≥ 50
O=C(O)CCc1ccc(OC2CCCCC2)c(-c2ccc3ccccc3c2)c1 [Compound 045, 3-[4-cyclohexyloxy-3-(naphthalen-2-yl)phenyl]propionic acid]	≥ 50	≥ 50		≥ 50
O=C(O)CCc1ccc(OCC2CCCC2)c(-c2ccc3cc(NCCO)ccc3c2)c1 [Compound 075, 3-{4-cyclopentylmethyloxy-3-[6-(2-hydroxyethylamino)naphthalen-2-yl]phenyl}propionic acid]	≥ 50	≥ 50		≥ 50
O=C(O)CCc1ccc(OCC2CCCC2)c(-c2ccc3cc(NC(=O)c4ccco4)ccc3c2)c1 [Compound 081, 3-(4-cyclopentylmethyloxy-3-{6-[(furan-2-carbonyl)amino]naphthalen-2-yl}phenyl)propionic acid]	≥ 50	≥ 50		≥ 50
O=C(O)CCc1ccc(OCc2ccc(Cl)cc2Cl)c(-c2ccc3[nH]ccc3c2)c1 [Compound 162, 3-[4-(2,4-dichlorophenylmethyloxy)-3-(1H-indol-5-yl)phenyl]propionic acid]	≥ 50	≥ 50		≥ 50
CCCCOc1ccc(COc2ccc(CCC(=O)OC)cc2-c2ccc3[nH]ccc3c2)cc1 [Compound 185, methyl 3-{4-[4-(butyloxy)phenylmethyloxy]-3-(1H-indol-5-yl)-phenyl}propionate]	≥ 50		suppressed footpad edema	≥ 50
O=C(O)CCc1ccc(OCCc2cccc(Cl)c2)c(-c2ccc3[nH]ccc3c2)c1 [Compound 211, 3-{4-[2-(3-chlorophenyl)ethyloxy]-3-(1H-indol-5-yl)phenyl}propionic acid]	≥ 50	≥ 50		≥ 50
CCn1ccc2cc(-c3cc(CCC(=O)O)ccc3OCc3ccccc3Cl)ccc21 [Compound 250, 3-[4-(2-chlorophenylmethyloxy)-3-(1-ethyl-1H-indol-5-yl)phenyl]propionic acid]	≥ 50	≥ 50		≥ 50
Nc1nc2ccc(-c3cc(CCC(=O)O)ccc3OCC3CCCC3)cc2s1 [Compound 287, 3-[3-(2-aminobenzothiazol-6-yl)-4-cyclopentylmethyloxyphenyl]propionic acid]	≥ 50	≥ 50		≥ 50
O=C(O)CCc1cc(F)c(OC2CCCC2)c(-c2ccc3[nH]ncc3c2)c1 [Compound 481, 3-[4-cyclopentyloxy-3-fluoro-5-(1H-indazol-5-yl)phenyl]propionic acid]	≥ 50	≥ 50		≥ 50
Cn1ncc2cc(-c3cc(CCC(=O)O)cc(F)c3OC3CCCC3)ccc21 [Compound 483, 3-[4-cyclopentyloxy-3-fluoro-5-(1-methyl-1H-indazol-5-yl)phenyl]propionic acid]	≥ 50	≥ 50		≥ 50
Nc1cc(CCC(=O)O)cc(-c2ccc3[nH]ncc3c2)c1OC1Cc2ccccc2C1 [Compound 486, 3-[3-amino-4-(indan-2-yloxy)-5-(1H-indazol-5-yl)phenyl]propionic acid]	≥ 50	≥ 50		≥ 50
CCn1ncc2cc(-c3cc(CCC(=O)O)cc(N)c3OC3Cc4ccccc4C3)ccc21 [Compound 489, 3-[3-amino-5-(1-ethyl-1H-indazol-5-yl)-4-(indan-2-yloxy)phenyl]propionic acid]	≥ 50	≥ 50		≥ 50
Cn1ncc2cc(-c3cc(CCC(=O)O)cc(O)c3OC3Cc4ccccc4C3)ccc21 [Compound 569, 3-[4-(indan-2-yloxy)-3-hydroxy-5-(1-methyl-1H-indazol-5-yl)phenyl]propionic acid]	≥ 50	≥ 50		≥ 50
Cc1cc(CCC(=O)O)cc(-c2ccc3c(cnn3C)c2)c1OC1CCCC1 [Compound 572, 3-[4-cyclopentyloxy-3-methyl-5-(1-methyl-1H-indazol-5-yl)phenyl]propionic acid]	≥ 50	≥ 50		≥ 50
CN(C)c1cc(CCC(=O)O)cc(-c2ccc3c(cnn3C)c2)c1OC1Cc2ccccc2C1 [Compound 586, 3-[4-(indan-2-yloxy)-3-(N,N-dimethylamino)-5-(1-methyl-1H-indazol-5-yl)phenyl]propionic acid]	≥ 50	≥ 50		≥ 50
O=C(O)CCc1ccc(OCC2CCCCC2)c(-c2ccccc2)c1 [reference compound (1), 3-(2-cyclohexylmethyloxy-1,1′-biphenyl-5-yl)propionic acid, reference compound]	-12.9			-5.9
CC1(C)CCC(C)(C)c2cc(COc3ccc(C(=O)O)cc3-c3ccccc3)ccc21 [reference compound (2), [2-(5,6,7,8-tetrahydro-5,5,8,8-tetramethyl-2-naphthalenyl)methyloxy-1,1′-biphenyl-5-yl]carboxylic acid, reference compound]	-17.6			-15.3
CC1(C)CCC(C)(C)c2cc(COc3cccc(CCC(=O)O)c3-c3cccc(C(=O)O)c3)ccc21 [reference compound (3), 3-[3′-carboxy-2-(5,6,7,8-tetrahydro-5,5,8,8-tetramethyl-2naphthalenyl)methyloxy-1,1′-biphenyl-6-yl]propionic acid, reference compound]	2.1			-6.3

From patent US6867320B2, “Substituted phenylalkanoic acid derivatives and use thereof” (Asahi Kasei Pharma Corporation, priority 2002, dated 2005)
